Data as given in patent publication US20080274522A1, “METHOD FOR THE PRODUCTION OF 2-BUTANONE” (priority 2007, published 2008).
Like-named read-outs stand apart in the source and are kept apart here.

Assays:
[1] = system: Lactobacillus plantarum PN0512; assay: Growth of L. plantarum PN0512 in the presence of butanols at different temperatures (OD600); format: cell-based; parameters: key to Growth of L. plantarum PN0512 in the presence of 1-butanol / Growth of L. plantarum PN0512 in the presence of isobutanol / Growth of L. plantarum PN0512 in the presence of 2-butanol: +: growth observed as an increase in OD600.; −: no growth observed, i.e. no change in OD600
Protocol: Tolerance levels of bacterial strain Lactobacillus plantarum PN0512 (ATCC # PTA-7727) were determined at 25° C., 30° C. and 37° C. as follows. The strain was cultured in S30L medium (i.e., 10 mM ammonium sulfate, 5 mM potassium phosphate buffer, pH 7.0, 50 mM MOPS, pH 7.0, 2 mM MgCl2, 0.7 mM CaCl2, 50 μM MnCl2, 1 μM FeCl3, 1 μM ZnCl2, 1.72 μM CuCl2, 2.53 μM COCl2, 2.42 μM Na2MoO4, 2 μM thiamine hydrochloride, 10 mM glucose, and 0.2% yeast extract). An overnight culture in the absence of any test compound was started in 15 mL of the S30L medium in a 150 mL flask, with incubation at 37° C. in a shaking water bath. The next morning, the overnight culture was diluted into three 500 mL flasks containing 150 mL of fresh medium to an initial OD600 of about 0.08. Each flask was incubated in a shaking water bath, one each at 25° C., 30° C. and 37° C. Each large culture was allowed to acclimate at the test temperature for at least 0.5 h. […] Growth was followed by measuring OD600 for six hours after addition of the compounds.

[2] = system: L. plantarum (strain PN0512); conditions: for % Survival at 37° C. / % Survival at 23° C. / % Survival at 0° C.: 1 h; for Concentration at which L. plantarum PN0512 cells were killed: one hour
Protocol: (§1) Using overnight cultures or cells from plates, 30 mL cultures of the microorganisms to be tested were started in the following culture media: • E. coli—Miller's LB medium (Teknova, Half Moon Bay, Calif.): • L. plantarum PN0512—Lactobacilli MRS Broth (BD Diagnostic Systems, Sparks, Md.). The E. coli and L. plantarum cultures were grown at 37° C. aerobically with shaking until the cultures were in log phase and the OD600 was between 0.6 and 0.8. A 50 μL aliquot of each culture was removed for a time zero sample. The remainder of the cultures was divided into six 5 mL portions and placed in six small incubation flasks or tubes. […] The flasks or tubes were incubated at a desired temperature, aerobically without shaking for 1 h. After the incubation with one of the butanols, 2 μL from each of the flasks (and in addition 2 μL of the time zero sample of the culture before exposure to one of the butanols) were pipetted into the “head” wells of a 96 well (8×12) microtiter plate, each containing 198 μL of LB medium to give a 10^−2 dilution of the culture. Subsequently, 10^−3, 10^−4, 10^−5, and 10^−6 serial dilutions of the cultures were prepared as follows. The 10^−3 dilution was prepared by pipetting 20 μL of the sample from the head well into the 180 μL LB medium in the next well using a multi-channel pipette. This procedure was repeated 3 more times on successive wells to prepare the 10^−4, 10^−5, and 10^−6 dilutions. After each liquid transfer, the solution in the well was mixed by pipetting it up and down 10 times with the multi-channel pipetor. A 5 μL aliquot of each dilution was spotted onto an LB plate using a multi-channel pipette starting with the 10^−6 dilution, then the 10^−5, and so on working from more to less dilute without a change of tips. The spots were allowed to soak into the agar by leaving the lid of the plate slightly open for 15 to 30 min in a sterile transfer hood. The plates were covered, inverted, and incubated overnight at 37° C. The following day, the number of colonies in the spots were counted from the different dilutions. The number of living cells/mL in each of the original culture solutions from which the 2 μL was withdrawn was calculated and compared to the number of cells in the control untreated culture to determine the % of the cells surviving.

[3] = system: E. coli (strain MG1655); conditions: for % Survival at 30° C. / % Survival at 37° C. / % Survival at 0° C.: 1 h; for Concentration at which E. coli cells were killed: one hour
Protocol: as §1

Substance: 1-butanol
- Growth of L. plantarum PN0512 in the presence of 1-butanol ([1]; 1.0 % w/v, 37° C.): +
- Growth of L. plantarum PN0512 in the presence of 1-butanol ([1]; 1.2 % w/v, 37° C.): +
- Growth of L. plantarum PN0512 in the presence of 1-butanol ([1]; 1.4 % w/v, 37° C.): +
- Growth of L. plantarum PN0512 in the presence of 1-butanol ([1]; 1.5 % w/v, 25° C.): +
- Growth of L. plantarum PN0512 in the presence of 1-butanol ([1]; 1.5 % w/v, 30° C.): +
- Growth of L. plantarum PN0512 in the presence of 1-butanol ([1]; 1.5 % w/v, 37° C.): +
- Growth of L. plantarum PN0512 in the presence of 1-butanol ([1]; 1.6 % w/v, 37° C.): +
- Growth of L. plantarum PN0512 in the presence of 1-butanol ([1]; 1.8 % w/v, 37° C.): +
- Growth of L. plantarum PN0512 in the presence of 1-butanol ([1]; 2.0 % w/v, 25° C.): +
- Growth of L. plantarum PN0512 in the presence of 1-butanol ([1]; 2.0 % w/v, 30° C.): +
- Growth of L. plantarum PN0512 in the presence of 1-butanol ([1]; 2.0 % w/v, 37° C.): +
- Growth of L. plantarum PN0512 in the presence of 1-butanol ([1]; 2.1 % w/v, 37° C.): +
- Growth of L. plantarum PN0512 in the presence of 1-butanol ([1]; 2.2 % w/v, 37° C.): +
- Growth of L. plantarum PN0512 in the presence of 1-butanol ([1]; 2.3 % w/v, 37° C.): +
- Growth of L. plantarum PN0512 in the presence of 1-butanol ([1]; 2.4 % w/v, 25° C.): +
- Growth of L. plantarum PN0512 in the presence of 1-butanol ([1]; 2.4 % w/v, 30° C.): +
- Growth of L. plantarum PN0512 in the presence of 1-butanol ([1]; 2.4 % w/v, 37° C.): −^2
- Growth of L. plantarum PN0512 in the presence of 1-butanol ([1]; 2.7 % w/v, 30° C.): +
- Growth of L. plantarum PN0512 in the presence of 1-butanol ([1]; 2.7 % w/v, 37° C.): −
- Growth of L. plantarum PN0512 in the presence of 1-butanol ([1]; 2.9 % w/v, 25° C.): +
- Growth of L. plantarum PN0512 in the presence of 1-butanol ([1]; 2.9 % w/v, 30° C.): −
- Growth of L. plantarum PN0512 in the presence of 1-butanol ([1]; 2.9 % w/v, 37° C.): −
- Growth of L. plantarum PN0512 in the presence of 1-butanol ([1]; 3.1 % w/v, 25° C.): +
- Growth of L. plantarum PN0512 in the presence of 1-butanol ([1]; 3.1 % w/v, 30° C.): −
- Growth of L. plantarum PN0512 in the presence of 1-butanol ([1]; 3.1 % w/v, 37° C.): −
- Growth of L. plantarum PN0512 in the presence of 1-butanol ([1]; 3.2 % w/v, 25° C.): −
- Growth of L. plantarum PN0512 in the presence of 1-butanol ([1]; 3.2 % w/v, 30° C.): −
- Growth of L. plantarum PN0512 in the presence of 1-butanol ([1]; 3.3 % w/v, 25° C.): −
- Growth of L. plantarum PN0512 in the presence of 1-butanol ([1]; 3.4 % w/v, 25° C.): −
- Growth of L. plantarum PN0512 in the presence of 1-butanol ([1]; 3.4 % w/v, 30° C.): −
- Concentration in which growth was observed ([1]; 25° C.): 3.1%
- Concentration in which growth was not observed ([1]; 30° C.): 2.9%
- Concentration in which growth was observed ([1]; 30° C.): 2.7%
- Concentration in which growth was not observed ([1]; 37° C.): 2.4%
- Concentration in which growth was observed ([1]; 37° C.): 2.3%
- Growth of L. plantarum PN0512 in the presence of 1-butanol ([1]; […] w/v, 37° C.): −
- Concentration with no toxic effect on L. plantarum PN0512 cells ([2]; 0° C., one hour treatment): ≤ 4.5 % v/v
- % Survival at 37° C. ([2]; 1-butanol 1 % v/v): 80%
- % Survival at 37° C. ([2]; 1-butanol 1.5 % v/v): 58%
- % Survival at 23° C. ([2]; 1-butanol 2 % v/v): 100%
- % Survival at 37° C. ([2]; 1-butanol 2 % v/v): 29%
- % Survival at 0° C. ([2]; 1-butanol 3 % v/v): 100%
- % Survival at 23° C. ([2]; 1-butanol 3 % v/v): 82%
- % Survival at 37° C. ([2]; 1-butanol 3 % v/v): 0%
- % Survival at 0° C. ([2]; 1-butanol 4 % v/v): 100%
- % Survival at 23° C. ([2]; 1-butanol 4 % v/v): 0%
- % Survival at 0° C. ([2]; 1-butanol 5 % v/v): 0%
- % Survival at 0° C. ([2]; 1-butanol 5.5 % v/v): 0%
- % Survival at 0° C. ([2]; 1-butanol […] v/v): 100%
- Concentration at which L. plantarum PN0512 cells were killed ([2]; 23° C.): 3.5 % v/v
- Concentration at which L. plantarum PN0512 cells were killed ([2]; 37° C.): 2.5 % v/v
- Concentration with no toxic effect on E. coli cells ([3]; 0° C., one hour treatment): ≤ 4.5 % v/v
- % Survival at 30° C. ([3]; 1-butanol 1 % v/v): 100%
- % Survival at 37° C. ([3]; 1-butanol 1 % v/v): 72%
- % Survival at 30° C. ([3]; 1-butanol 1.5 % v/v): 100%
- % Survival at 37° C. ([3]; 1-butanol 1.5 % v/v): 20%
- % Survival at 30° C. ([3]; 1-butanol 2 % v/v): 100%
- % Survival at 37° C. ([3]; 1-butanol 2 % v/v): 0%
- % Survival at 0° C. ([3]; 1-butanol 3 % v/v): 100%
- % Survival at 30° C. ([3]; 1-butanol 3 % v/v): 0%
- % Survival at 37° C. ([3]; 1-butanol 3 % v/v): 0%
- % Survival at 0° C. ([3]; 1-butanol 4 % v/v): 100%
- % Survival at 0° C. ([3]; 1-butanol […] v/v): 100%
- % Survival at 37° C. ([3]; 1-butanol […] v/v): 0%
- Concentration at which E. coli cells were killed ([3]; 30° C.): 3 % v/v
- Concentration at which E. coli cells were killed ([3]; 37° C.): 2 % v/v
